Test results from ChEMBL document CHEMBL3217684, “Synthesis and cytotoxicity evaluation of regioisomeric substituted N-phenyl-3-(chrom-4-one-3-yl)-isoxazolidines: induction of apoptosis through a mitochondrial-dependent pathway” (Medchemcomm, 2013).
Calls of active or inactive are those of the source. No cut-off for these calls is given here.

Columns and labels:
Caco-2 = assay: Cytotoxicity against human Caco2 cells assessed as inhibition of cell proliferation after 48 hrs by sulforhodamine-B assay; type: functional, cell-based; conditions: Caco-2, 48 h
PC-3 = assay: Cytotoxicity against human PC3 cells assessed as inhibition of cell proliferation after 48 hrs by sulforhodamine-B assay; type: functional, cell-based; conditions: PC-3, 48 h
THP-1 = assay: Cytotoxicity against human THP1 cells assessed as inhibition of cell proliferation after 48 hrs by sulforhodamine-B assay; type: functional, cell-based; conditions: THP-1, 48 h
A549 = assay: Cytotoxicity against human A549 cells assessed as inhibition of cell proliferation after 48 hrs by sulforhodamine-B assay; type: functional, cell-based; conditions: A549, 48 h
HL-60 [1] = assay: Induction of apoptosis in human HL60 cells assessed as intact mitochondrial membrane potential at 50 uM after 24 hrs by Rhodamine 123 staining based flow cytometry (reference value: 93.6%); type: functional
HL-60 [2] = assay: Induction of apoptosis in human HL60 cells assessed as intact mitochondrial membrane potential at 30 uM after 24 hrs by Rhodamine 123 staining based flow cytometry (reference value: 93.6%); type: functional
HL-60 [3] = assay: Induction of apoptosis in human HL60 cells assessed as intact mitochondrial membrane potential at 10 uM after 24 hrs by Rhodamine 123 staining based flow cytometry (reference value: 93.6%); type: functional
HL-60 [4] = assay: Induction of apoptosis in human HL60 cells assessed as loss of mitochondrial membrane potential at 50 uM after 24 hrs by Rhodamine 123 staining based flow cytometry (reference value: 7%); type: functional
HL-60 [5] = assay: Induction of apoptosis in human HL60 cells assessed as loss of mitochondrial membrane potential at 30 uM after 24 hrs by Rhodamine 123 staining based flow cytometry (reference value: 7%); type: functional
HL-60 [6] = assay: Induction of apoptosis in human HL60 cells assessed as loss of mitochondrial membrane potential at 10 uM after 24 hrs by Rhodamine 123 staining based flow cytometry (reference value: 7%); type: functional
HL-60 [7] = assay: Induction of apoptosis in human HL60 cells assessed as mitochondrial damage and loss of mitochondrial membrane potential after 24 hrs by Rhodamine 123 staining based flow cytometry; type: functional, cell-based
HL-60 [8] = assay: Induction of apoptosis in human HL60 cells assessed as accumulation of DNA at sub-G0 phase at 100 uM after 24 hrs by propidium iodide staining based flow cytometry (Rvb= 4.2%); type: functional
HL-60 [9] = assay: Induction of apoptosis in human HL60 cells assessed as accumulation of DNA at sub-G0 phase at 50 uM after 24 hrs by propidium iodide staining based flow cytometry (Rvb= 4.2%); type: functional
HL-60 [10] = assay: Induction of apoptosis in human HL60 cells assessed as accumulation of DNA at sub-G0 phase at 30 uM after 24 hrs by propidium iodide staining based flow cytometry (Rvb= 4.2%); type: functional
HL-60 [11] = assay: Induction of apoptosis in human HL60 cells assessed as accumulation of DNA at sub-G0 phase at 10 uM after 24 hrs by propidium iodide staining based flow cytometry (Rvb= 4.2%); type: functional
HL-60 [12] = assay: Induction of apoptosis in human HL60 cells assessed as DNA fragmentation at 50 uM after 24 hrs by agarose gel electrophoresis analysis; type: functional, cell-based
HL-60 [13] = assay: Induction of apoptosis in human HL60 cells assessed as condensation and fragmentation of nuclei at 50 to 100 uM after 24 hrs by DAPI staining based fluorescence microscopic analysis; type: functional, cell-based
HL-60 [14] = assay: Induction of apoptosis in human HL60 cells assessed as intact mitochondrial membrane potential at 1 uM after 24 hrs by Rhodamine 123 staining based flow cytometry (reference value: 93.6%); type: functional
HL-60 [15] = assay: Induction of apoptosis in human HL60 cells assessed as loss of mitochondrial membrane potential at 1 uM after 24 hrs by Rhodamine 123 staining based flow cytometry (reference value: 7%); type: functional
HL-60 [16] = assay: Induction of apoptosis in human HL60 cells assessed as accumulation of DNA at sub-G0 phase at 1 uM after 24 hrs by propidium iodide staining based flow cytometry (Rvb= 4.2%); type: functional

Row | SMILES | IC50 (Caco-2) | IC50 (PC-3) | IC50 (THP-1) | IC50 (A549) | further results
1 | COC(=O)[C@@]1(C)C[C@@H](c2coc3ccc(F)cc3c2=O)N(c2ccccc2)O1 (relative stereo) | 29.5 µM | 31.3 µM | 47 µM | 20.3 µM | 
2 | CCO[C@H]1C[C@@H](c2coc3cc(Cl)c(Cl)cc3c2=O)N(c2ccccc2)O1 (relative stereo) | > 60 µM | > 60 µM | 16.5 µM | 19.8 µM | 
3 | O=c1c([C@@H]2C[C@H](c3ccccc3)ON2c2ccccc2)coc2ccc(F)cc12 (relative stereo) | 60 µM | 49 µM | 54.7 µM | 51.5 µM | 
4 | COC(=O)[C@@]1(C)C[C@@H](c2coc3ccc(Br)cc3c2=O)N(c2ccccc2)O1 (relative stereo) | > 60 µM | > 60 µM | 14.7 µM | 9.9 µM | 
5 | COC(=O)[C@@]1(C)C[C@@H](c2coc3ccc(C)cc3c2=O)N(c2ccccc2)O1 (relative stereo) | 19.7 µM | > 60 µM | 7.3 µM | 0.7 µM | Activity (HL-60 [1]): 45.7%; Activity (HL-60 [2]): 62.9%; Activity (HL-60 [3]): 92%; Activity (HL-60 [4]): 53.9%; Activity (HL-60 [5]): 36.6%; Activity (HL-60 [6]): 7.9%; Activity (HL-60 [7]): Dose-dependent effect; Activity (HL-60 [8]): 50.2%; Activity (HL-60 [9]): 44.6%; Activity (HL-60 [10]): 41.6%; Activity (HL-60 [11]): 4.9%; Activity (HL-60 [12]): Active; Activity (HL-60 [13]): Active
6 | O=C1[C@H]2[C@H](ON(c3ccccc3)[C@@H]2c2coc3ccc(Br)cc3c2=O)C(=O)N1c1ccccc1 (relative stereo) | 20.3 µM | 13.3 µM | 22.3 µM | 17 µM | 
7 | NC(=O)[C@H]1C[C@@H](c2coc3ccccc3c2=O)N(c2ccccc2)O1 (relative stereo) | > 60 µM | > 60 µM | > 60 µM | > 60 µM | 
8 | COC(=O)[C@H]1C[C@@H](c2coc3ccccc3c2=O)N(c2ccccc2)O1 (relative stereo) | > 60 µM | > 60 µM | > 60 µM | > 60 µM | 
9 | O=c1c([C@@H]2C[C@H](c3ccccc3)ON2c2ccccc2)coc2cc(Cl)c(Cl)cc12 (relative stereo) | 23.5 µM | 32 µM | 38 µM | 43 µM | 
10 | CCO[C@H]1C[C@@H](c2coc3ccccc3c2=O)N(c2ccccc2)O1 (relative stereo) | > 60 µM | > 60 µM | > 60 µM | > 60 µM | 
11 | CCO[C@H]1C[C@@H](c2coc3ccc(Br)cc3c2=O)N(c2ccccc2)O1 (relative stereo) | > 60 µM | > 60 µM | > 60 µM | 21.5 µM | 
12 | O=c1c([C@@H]2C[C@H](c3ccccc3)ON2c2ccccc2)coc2ccccc12 (relative stereo) | > 60 µM | > 60 µM | > 60 µM | > 60 µM | 
13 | O=c1c([C@@H]2C[C@H](c3ccccc3)ON2c2ccccc2)coc2ccc(Br)cc12 (relative stereo) | > 60 µM | 60 µM | 60 µM | 51 µM | 
14 | Cc1ccc2occ([C@@H]3C[C@H](c4ccccc4)ON3c3ccccc3)c(=O)c2c1 (relative stereo) | 31.7 µM | > 60 µM | > 60 µM | 49 µM | 
15 | Cc1ccc2occ([C@@H]3C[C@H](OCC(C)C)ON3c3ccccc3)c(=O)c2c1 (relative stereo) | > 60 µM | 37.7 µM | 21.5 µM | 17.1 µM | 
16 | O=c1c([C@@H]2C[C@H](c3ccncc3)ON2c2ccccc2)coc2ccccc12 (relative stereo) | 37 µM | 46 µM | 16.4 µM | 19.3 µM | 
17 | COC(=O)[C@H]1C[C@@H](c2coc3ccc(Cl)cc3c2=O)N(c2ccccc2)O1 (relative stereo) | > 60 µM | > 60 µM | > 60 µM | > 60 µM | 
18 | CC[C@@]1(O)C(=O)OCc2c1cc1n(c2=O)Cc2cc3ccccc3nc2-1 [CAMPTOTHECIN] |  |  |  |  | Activity (HL-60 [14]): 46.1%; Activity (HL-60 [15]): 53.3%; Activity (HL-60 [16]): 61.8%
19 | CCO[C@H]1C[C@@H](c2coc3ccc(C)cc3c2=O)N(c2ccccc2)O1 (relative stereo) | 31 µM | 39 µM | 41 µM | 20.7 µM | 
20 | CCO[C@H]1C[C@@H](c2coc3ccc(F)cc3c2=O)N(c2ccccc2)O1 (relative stereo) | > 60 µM | 31.7 µM | > 60 µM | 26.4 µM | 
21 | CO[C@@]12[C@H](COC(N)=O)C3=C(C(=O)C(C)=C(N)C3=O)N1C[C@@H]1N[C@@H]12 [MITOMYCIN] |  |  |  | 0.4 µM | 
22 | Cc1ccc2occ([C@@H]3[C@H]4C(=O)N(c5ccccc5)C(=O)[C@H]4ON3c3ccccc3)c(=O)c2c1 | > 60 µM | 11.1 µM | > 60 µM | > 60 µM | 
23 | O=C1[C@H]2[C@H](ON(c3ccccc3)[C@@H]2c2coc3ccc(F)cc3c2=O)C(=O)N1c1ccccc1 (relative stereo) | > 60 µM | > 60 µM | 43.5 µM | 13.5 µM | 
24 | N#C[C@H]1C[C@@H](c2coc3ccc(Cl)cc3c2=O)N(c2ccccc2)O1 (relative stereo) | 39 µM | 41 µM | 35 µM | 40 µM | 
